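Grown in 96-well plates, cells were treated for 48 hours with each compound at five concentrations. Insufficient inhibition: endpoint recorded as highest concentration tested. GI50: concentration for 50% inhibition of growth.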 The source made the active and inactive calls. Cut-off read from the data, not from the text of the source: active = GI50 up to about 1.1 µM and inactive = higher.
Columns and labels:
Experiment in all cases: NCI-60 cell line screen, 48 h
HCT-116 = tested on: HCT-116
SNB-19 = tested on: SNB-19
SK-MEL-2 = tested on: SK-MEL-2
HCC 2998 = tested on: HCC 2998
KM12 = tested on: KM12
Malme-3M = tested on: Malme-3M
NCI-H226 = tested on: NCI-H226
TK-10 = tested on: TK-10
SNB-75 = tested on: SNB-75
RPMI-8226 = tested on: RPMI-8226
K562 = tested on: K562
BT-549 = tested on: BT-549
MCF7 = tested on: MCF7
MDA-MB-231 = tested on: MDA-MB-231
COLO 205 = tested on: COLO 205
Hs-578T = tested on: Hs-578T
NCI-H460 = tested on: NCI-H460
NCI/ADR-RES = tested on: NCI/ADR-RES
SF-295 = tested on: SF-295
HT-29 = tested on: HT-29
T47D = tested on: T47D
CCRF-CEM = tested on: CCRF-CEM
SK-MEL-5 = tested on: SK-MEL-5
MOLT-4 = tested on: MOLT-4
MDA-MB-435 = tested on: MDA-MB-435
SN12C = tested on: SN12C
HCT-15 = tested on: HCT-15
PC-3 = tested on: PC-3
CAKI-1 = tested on: CAKI-1
786-0 = tested on: 786-0
A498 = tested on: A498
HL-60 = tested on: HL-60
SK-MEL-28 = tested on: SK-MEL-28
EKVX = tested on: EKVX
HOP-62 = tested on: HOP-62
SF-268 = tested on: SF-268
ACHN = tested on: ACHN
UACC-62 = tested on: UACC-62
SK-OV-3 = tested on: SK-OV-3
DU-145 = tested on: DU-145
HOP-92 = tested on: HOP-92
A549 = tested on: A549
NCI-H23 = tested on: NCI-H23
OVCAR-4 = tested on: OVCAR-4
UACC-257 = tested on: UACC-257
M14 = tested on: M14
NCI-H522 = tested on: NCI-H522
OVCAR-3 = tested on: OVCAR-3
U-251 = tested on: U-251
OVCAR-5 = tested on: OVCAR-5
SF-539 = tested on: SF-539
LOX IMVI = tested on: LOX IMVI
UO-31 = tested on: UO-31
SW-620 = tested on: SW-620
OVCAR-8 = tested on: OVCAR-8
IGROV-1 = tested on: IGROV-1
RXF 393 = tested on: RXF 393
MDA-N = tested on: MDA-N

With `CC1=NNC(=O)[C@H]2[C@H]1CCC1[C@@H]2CC[C@]2(C)[C@@H](O)CC[C@@H]12` (stereo partly drawn) the GI50 (HCT-116) was > 100 µM (inactive), the GI50 (SNB-19) was > 100 µM (inactive) and the GI50 (SK-MEL-2) was > 100 µM (inactive). For the same compound, the GI50 (HCC 2998) was > 100 µM (inactive), the GI50 (KM12) was > 100 µM (inactive) and the GI50 (Malme-3M) was > 100 µM (inactive). The GI50 (NCI-H226) was > 100 µM (inactive), the GI50 (TK-10) was > 100 µM (inactive) and the GI50 (SNB-75) was 12.6 µM (inactive). For the same compound, the GI50 (RPMI-8226) was > 100 µM (inactive), the GI50 (K562) was > 100 µM (inactive) and the GI50 (BT-549) was > 100 µM (inactive). The GI50 (MCF7) was > 100 µM (inactive), the GI50 (MDA-MB-231) was > 100 µM (inactive) and the GI50 (COLO 205) was > 100 µM (inactive). For the same compound, the GI50 (Hs-578T) was > 100 µM (inactive), the GI50 (NCI-H460) was > 100 µM (inactive) and the GI50 (NCI/ADR-RES) was > 100 µM (inactive). For the same compound, the GI50 (SF-295) was > 100 µM (inactive), the GI50 (HT-29) was > 100 µM (inactive) and the GI50 (T47D) was > 100 µM (inactive). The GI50 (CCRF-CEM) was > 100 µM (inactive), the GI50 (SK-MEL-5) was > 100 µM (inactive) and the GI50 (MOLT-4) was > 100 µM (inactive). The GI50 (MDA-MB-435) was > 100 µM (inactive), the GI50 (SN12C) was > 100 µM (inactive) and the GI50 (HCT-15) was > 100 µM. The GI50 (PC-3) was > 100 µM (inactive), the GI50 (CAKI-1) was > 100 µM (inactive) and the GI50 (786-0) was > 100 µM (inactive). For the same compound, the GI50 (A498) was > 100 µM (inactive), the GI50 (HL-60) was > 100 µM (inactive) and the GI50 (SK-MEL-28) was > 100 µM (inactive). For the same compound, the GI50 (EKVX) was > 100 µM (inactive), the GI50 (HOP-62) was > 100 µM (inactive) and the GI50 (SF-268) was > 100 µM (inactive). For the same compound, the GI50 (ACHN) was > 100 µM (inactive), the GI50 (UACC-62) was > 100 µM (inactive) and the GI50 (SK-OV-3) was > 100 µM (inactive). The GI50 (DU-145) was > 100 µM (inactive), the GI50 (HOP-92) was > 100 µM (inactive) and the GI50 (A549) was > 100 µM (inactive). For the same compound, the GI50 (NCI-H23) was > 100 µM (inactive), the GI50 (OVCAR-4) was > 100 µM (inactive) and the GI50 (UACC-257) was > 100 µM (inactive). The GI50 (M14) was > 100 µM (inactive), the GI50 (NCI-H522) was > 100 µM (inactive) and the GI50 (OVCAR-3) was > 100 µM (inactive). For the same compound, the GI50 (U-251) was > 100 µM (inactive), the GI50 (OVCAR-5) was > 100 µM (inactive) and the GI50 (SF-539) was > 100 µM (inactive). For the same compound, the GI50 (LOX IMVI) was > 100 µM (inactive), the GI50 (UO-31) was > 100 µM (inactive) and the GI50 (SW-620) was > 100 µM (inactive). The GI50 (OVCAR-8) was > 100 µM (inactive), the GI50 (IGROV-1) was > 100 µM (inactive) and the GI50 (RXF 393) was > 100 µM (inactive). The GI50 (MDA-N) was > 100 µM (inactive).

Reference: ChEMBL document CHEMBL1201862, “PubChem BioAssay data set” (2004)
